In patent US20240252546A1, “NEURITE OUTGROWTH PROMOTION KIT AND USE THEREFOR” (KEIO UNIVERSITY, priority 2021, published 2024):

Experiments:
CDC25B = target: T1, CDC25B (Homo sapiens, UniProt P30305); details: "it is said"; cited from earlier work
T1 sequence (P30305 1-580): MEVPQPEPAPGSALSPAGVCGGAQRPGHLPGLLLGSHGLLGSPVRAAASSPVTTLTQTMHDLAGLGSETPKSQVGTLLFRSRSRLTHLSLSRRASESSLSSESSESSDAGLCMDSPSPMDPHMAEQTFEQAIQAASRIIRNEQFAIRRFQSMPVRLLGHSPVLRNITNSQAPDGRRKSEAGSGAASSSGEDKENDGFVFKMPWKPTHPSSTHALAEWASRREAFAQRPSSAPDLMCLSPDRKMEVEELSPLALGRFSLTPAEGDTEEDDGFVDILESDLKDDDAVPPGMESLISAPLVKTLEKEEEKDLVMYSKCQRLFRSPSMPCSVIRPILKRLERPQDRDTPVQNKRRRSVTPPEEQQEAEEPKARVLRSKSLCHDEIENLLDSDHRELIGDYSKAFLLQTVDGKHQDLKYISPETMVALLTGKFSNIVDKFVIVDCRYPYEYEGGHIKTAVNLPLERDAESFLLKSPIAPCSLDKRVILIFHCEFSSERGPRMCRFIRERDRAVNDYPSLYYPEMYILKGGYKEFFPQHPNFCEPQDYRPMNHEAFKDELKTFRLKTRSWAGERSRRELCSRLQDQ

phosphorylated CDC25B [1] = assay: Effect of RK-682 on phosphorylation of CDC25B (Experimental Example 9); type: cell-based, human; details: 201B7 neurospheres; 20 μM RK-682, 24 hours; vs control
Method: (§1) Neurospheres derived from 201B7 cells, which are cells of a human iPS cell line, were prepared in the same manner as in Experimental Example 1. Subsequently, the neurospheres were cultured for 24 hours in the presence of RK-682 at a final concentration of 20 μM. In addition, as a control, a group to which RK-682 was not added was also prepared. Subsequently, each neurosphere was fixed with paraformaldehyde and subjected to immunostaining of each of the phosphorylated p38 and the phosphorylated CDC25B.

phosphorylated p38 = assay: Effect of RK-682 on phosphorylation of p38 (Experimental Example 9); type: cell-based, human; details: 201B7 neurospheres; 20 μM RK-682, 24 hours; vs control
Method: as §1

[2] = test system: nerve cells induced from neurospheres derived from 201B7 cells; assay: Effect of RK-682 on neurite outgrowth (Experimental Example 10); type: cell-based, human; details: 201B7 neurospheres; 20 μM RK-682, 24 hours, differentiated 14 days; vs control
Method: Neurospheres derived from 201B7 cells, which are cells of a human iPS cell line, were prepared in the same manner as in Experimental Example 1. Subsequently, the neurospheres were cultured for 24 hours in the presence of RK-682 at a final concentration of 20 μM. In addition, as a control, a group to which RK-682 was not added was also prepared.
(§2) Subsequently, each neurosphere was seeded on a 48-well chamber slide (IWAKI & CO., LTD.) coated with poly-L-ornithine/fibronectin, cultured for 14 days in a culture medium containing no growth factor at 37° C. in an environment of 95% air and 5% CO2, and differentiated into nerve cells.
Subsequently, each of the obtained nerve cells was fixed with 4% paraformaldehyde in 0.1 M PBS, and each of βIII-tubulin which is a nerve cell marker, and the Tau protein which is frequently distributed in axons, was immunostained, and the length of the neurite was measured.

[3] = test system: nerve cells induced from neurospheres derived from 201B7 cells; assay: Effect of addition of SB203580 on neurite outgrowth (Experimental Example 7); type: cell-based, human; details: differentiated 14 days
Method: (§3) Neurospheres derived from 201B7 cells, which are cells of a human iPS cell line, were prepared in the same manner as in Experimental Example 1. Subsequently, each neurosphere was cultured for 24 hours in the presence of each of DAPT and Compound 34. DAPT and Compound 34 were used at the same concentrations as in Experimental Example 1. In addition, in this case, SB203580 (CAS number: 152121-47-6), which is a p38 inhibitor, was added to the culture medium at a final concentration of 20 μM. In addition, a group to which SB203580 had not been added was also prepared as a control.
as §2
Subsequently, each of the obtained nerve cells was fixed with 4% paraformaldehyde in 0.1 M PBS, and each of βIII-tubulin which is a nerve cell marker, and the Tau protein which is frequently distributed in axons, was immunostained, and the length of the neurite was measured. […]

phosphorylated CDC25B [4] = assay: Effect of addition of SB203580 on phosphorylation of CDC25B (Experimental Example 6); type: cell-based, human
Method: as §3
Subsequently, each neurosphere was fixed with paraformaldehyde and subjected to immunostaining of phosphorylated CDC25B.
In FIG. 12(c), “DAPT” indicates it is the result obtained from the control into which the DAPT treatment has been carried out in the absence of SB203580, and “DAPT+SB203580” indicates it is the result obtained by carrying out the DAPT treatment in the presence of SB203580.

[5] = 20 μM SB203580 during Compound 34 treatment (1 μM, 24 hours), vs without SB203580
[6] = 20 μM SB203580 during DAPT treatment (10 μM, 24 hours), vs DAPT without SB203580

**Q.** What does the source list for CCCCCCCCCCCCCCCC(=O)C1=C(O)[C@@H](CO)OC1=O [RK-682]?
**A.** dephosphorylation inhibitory effect on CDC25B (CDC25B): does not have a dephosphorylation inhibitory effect; amount of phosphorylated CDC25B in the neurosphere (phosphorylated CDC25B [1]): significantly increased; amount of phosphorylated p38 in the neurosphere (phosphorylated p38): significantly increased; neurite outgrowth (neurite length), βIII-tubulin immunostaining [2]: significantly promoted; neurite outgrowth, Tau protein immunostaining [2]: significantly promoted

**Q.** Which “neurite outgrowth (neurite length)” value [3, 5] does the source give for C[S+]([O-])c1ccc(-c2nc(-c3ccncc3)c(-c3ccc(F)cc3)[nH]2)cc1 (stereo not drawn) [SB203580] here?
**A.** Its value is “significantly suppressed”.

**Q.** And the “neurite outgrowth (neurite length)” value [3, 6]?
**A.** Its value is “significantly suppressed”.

**Q.** And the “increase in the amount of phosphorylated CDC25B in the neurosphere” value (phosphorylated CDC25B [4]; [5])?
**A.** Its value is “significantly suppressed”.

**Q.** And the “increase in the amount of phosphorylated CDC25B in the neurosphere” value (phosphorylated CDC25B [4]; [6])?
**A.** Its value is “significantly suppressed”.
